Reference: the NIST ThermoML archive (doi:10.1016/j.jct.2008.11.003)

Key:
[1] = 101.33 kPa, Liquid; for mass density: Vibrating tube method; for viscosity: Cone and plate viscometry
[2] = refractive index (Na D-line) (dimensionless); conditions: 101.33 kPa, Liquid, Standard Abbe refractometry

CC(=O)[O-].OCC[NH2+]CCO [2,2'-azanediylbis(ethanol) acetate]
Conditions | mass density [kg/m3] | refractive index | viscosity [mPa·s]
[1], 293.15 K | 1173.85 | – | –
[1], 298.2 K | – | – | 566.89
[1], 303.15 K | 1166.39 | – | –
[1], 303.2 K | – | – | 376.59
[1], 308.2 K | – | – | 260.02
[1], 313.15 K | 1160.12 | – | –
[1], 313.2 K | – | – | 183.97
[1], 318.2 K | – | – | 136.06
[1], 323.15 K | 1153.96 | – | –
[1], 323.2 K | – | – | 101.06
[1], 328.2 K | – | – | 78.35
[1], 333.15 K | 1147.64 | – | –
[1], 333.2 K | – | – | 60.25
[1], 338.2 K | – | – | 48.79
[1], 343.15 K | 1141.22 | – | –
[1], 343.2 K | – | – | 38.65
[1], 348.2 K | – | – | 31.51
[1], 353.15 K | 1134.66 | – | –
[1], 363.15 K | 1127.97 | – | –
[2], 293.15 K | – | 1.43431 | –
[2], 298.15 K | – | 1.43338 | –
[2], 303.15 K | – | 1.43238 | –
[2], 308.15 K | – | 1.43137 | –
[2], 313.15 K | – | 1.43029 | –
[2], 318.15 K | – | 1.42916 | –
[2], 323.15 K | – | 1.42798 | –
[2], 328.15 K | – | 1.42673 | –
[2], 333.15 K | – | 1.42547 | –

CC(=O)[O-].[NH3+]CCO [2-hydroxyethylammonium acetate]
Conditions | mass density [kg/m3] | refractive index | viscosity [mPa·s]
[1], 293.15 K | 1148.66 | – | –
[1], 298.2 K | – | – | 313.15
[1], 303.15 K | 1143.39 | – | –
[1], 303.2 K | – | – | 224.68
[1], 308.2 K | – | – | 162.91
[1], 313.15 K | 1138.02 | – | –
[1], 313.2 K | – | – | 120.26
[1], 318.2 K | – | – | 92.56
[1], 323.15 K | 1132.52 | – | –
[1], 323.2 K | – | – | 70.68
[1], 328.2 K | – | – | 56.56
[1], 333.15 K | 1126.94 | – | –
[1], 333.2 K | – | – | 43.91
[1], 338.2 K | – | – | 34.98
[1], 343.15 K | 1121.26 | – | –
[1], 343.2 K | – | – | 29.04
[1], 348.2 K | – | – | 24.05
[1], 353.15 K | 1115.47 | – | –
[1], 363.15 K | 1109.55 | – | –
[2], 293.15 K | – | 1.43775 | –
[2], 298.15 K | – | 1.43682 | –
[2], 303.15 K | – | 1.43593 | –
[2], 308.15 K | – | 1.4351 | –
[2], 313.15 K | – | 1.43428 | –
[2], 318.15 K | – | 1.43356 | –
[2], 323.15 K | – | 1.43287 | –
[2], 328.15 K | – | 1.43223 | –
[2], 333.15 K | – | 1.43164 | –

CC(=O)[O-].C[NH+](CCO)CCO [N-methyldiethanolammonium acetate]
Conditions | mass density [kg/m3] | refractive index | viscosity [mPa·s]
[1], 293.15 K | 1141.42 | – | –
[1], 298.2 K | – | – | 198.91
[1], 303.15 K | 1132.76 | – | –
[1], 303.2 K | – | – | 144.69
[1], 308.2 K | – | – | 108.33
[1], 313.15 K | 1125.85 | – | –
[1], 313.2 K | – | – | 83.56
[1], 318.2 K | – | – | 64.12
[1], 323.15 K | 1118.75 | – | –
[1], 323.2 K | – | – | 50.96
[1], 328.2 K | – | – | 40.45
[1], 333.15 K | 1111.46 | – | –
[1], 333.2 K | – | – | 32.15
[1], 338.2 K | – | – | 25.98
[1], 343.15 K | 1103.98 | – | –
[1], 343.2 K | – | – | 22.32
[1], 348.2 K | – | – | 18.45
[1], 353.15 K | 1096.28 | – | –
[1], 363.15 K | 1088.36 | – | –
[2], 293.15 K | – | 1.43302 | –
[2], 298.15 K | – | 1.43215 | –
[2], 303.15 K | – | 1.43122 | –
[2], 308.15 K | – | 1.43023 | –
[2], 313.15 K | – | 1.42922 | –
[2], 318.15 K | – | 1.42813 | –
[2], 323.15 K | – | 1.42702 | –
[2], 328.15 K | – | 1.42583 | –
[2], 333.15 K | – | 1.42462 | –

CC(O)C(=O)O.OCCNCCO [diethanolamine lactate]
Conditions | mass density [kg/m3] | refractive index | viscosity [mPa·s]
[1], 293.15 K | 1206.34 | – | –
[1], 298.2 K | – | – | 288.56
[1], 303.15 K | 1198.77 | – | –
[1], 303.2 K | – | – | 204.15
[1], 308.2 K | – | – | 148.54
[1], 313.15 K | 1192.47 | – | –
[1], 313.2 K | – | – | 110.25
[1], 318.2 K | – | – | 84.34
[1], 323.15 K | 1186.14 | – | –
[1], 323.2 K | – | – | 65.45
[1], 328.2 K | – | – | 51.78
[1], 333.15 K | 1179.73 | – | –
[1], 333.2 K | – | – | 42.15
[1], 338.2 K | – | – | 33.45
[1], 343.15 K | 1173.25 | – | –
[1], 343.2 K | – | – | 27.15
[1], 348.2 K | – | – | 22.45
[1], 353.15 K | 1166.69 | – | –
[1], 363.15 K | 1160.03 | – | –
[2], 293.15 K | – | 1.44156 | –
[2], 298.15 K | – | 1.44142 | –
[2], 303.15 K | – | 1.44109 | –
[2], 308.15 K | – | 1.44056 | –
[2], 313.15 K | – | 1.43983 | –
[2], 318.15 K | – | 1.43891 | –
[2], 323.15 K | – | 1.43776 | –
[2], 328.15 K | – | 1.43642 | –
[2], 333.15 K | – | 1.43489 | –

CC(O)C(=O)[O-].[NH3+]CCO (stereo not given) [2-hydroxyethylammonium lactate]
Conditions | mass density [kg/m3] | refractive index | viscosity [mPa·s]
[1], 293.15 K | 1204.52 | – | –
[1], 298.2 K | – | – | 254.25
[1], 303.15 K | 1197.84 | – | –
[1], 303.2 K | – | – | 181.45
[1], 308.2 K | – | – | 133.32
[1], 313.15 K | 1191.86 | – | –
[1], 313.2 K | – | – | 100.02
[1], 318.2 K | – | – | 76.88
[1], 323.15 K | 1185.78 | – | –
[1], 323.2 K | – | – | 60.18
[1], 328.2 K | – | – | 48.12
[1], 333.15 K | 1179.64 | – | –
[1], 333.2 K | – | – | 38.12
[1], 338.2 K | – | – | 31.02
[1], 343.15 K | 1173.45 | – | –
[1], 343.2 K | – | – | 24.98
[1], 348.2 K | – | – | 21.26
[1], 353.15 K | 1167.19 | – | –
[1], 363.15 K | 1160.86 | – | –
[2], 293.15 K | – | 1.43858 | –
[2], 298.15 K | – | 1.43758 | –
[2], 303.15 K | – | 1.43658 | –
[2], 308.15 K | – | 1.43557 | –
[2], 313.15 K | – | 1.43455 | –
[2], 318.15 K | – | 1.43354 | –
[2], 323.15 K | – | 1.43252 | –
[2], 328.15 K | – | 1.43148 | –
[2], 333.15 K | – | 1.43043 | –
